From patent publication US20240317775A1, “H4 Antagonist Compounds” (HEPTARES THERAPEUTICS LIMITED, priority 2020, published 2024)

Legend:
Type in all cases: cell-based
human H4 receptor [1] = target: T1, human H4 receptor (Homo sapiens, UniProt Q9H3N8); assay: H4 Antagonist Functional Dynamic Mass Redistribution Assay; conditions: HEKf cells expressing human H4 receptor, functional antagonist pKb by Cheng-Prusoff vs histamine EC80; for Kb: read-out: Human H4 DMR fpKb (converted)
T1 construct: expressed in transfected cells; host or cells: HEKf cells infected with baculovirus
Description: HEKf cells were infected using baculovirus expressing the human H4 receptor, plated into fibronectin-coated EPIC plates at a density of 10,000 cells/well and incubated overnight at 37° C. The medium on cells was changed to 30 μL HBSS with 20 mM HEPES per well and 30 nL DMSO were added per well by LabCyte ECHO acoustic dispensing. Following 2 h equilibration at room temperature, 30 nL of H4 ligands prepared in DMSO were stamped by LabCyte ECHO acoustic dispensing into seeded EPIC plates and cellular dynamic mass redistribution was monitored using a Corning EPIC plate reader. Following 45 min measurement, 30 nL/well of histamine EC80 was added and monitored to obtain antagonist assay data. Maximum baseline-corrected responses in pm were used to generate concentration response curves. EC50 values were generated using a 4-parameter logistical fit equation to quantify agonist potencies. Functional antagonist affinity values were generated using the Cheng-Prusoff equation to calculate a pKb value using the antagonist assay data.

hERG [2] = target: T2, hERG (Homo sapiens, UniProt Q12809); assay: hERG pIC50 assay (QPatch automated patch clamp, CHO cells, 1, 3, 10 and 30 μM); conditions: CHO cells expressing hERG, 1-30 μM, ≤4.0 = fails to reach >40% block at 30 μM
From the text: (§1) Series resistance (4-15 MΩ) was compensated by >80%.

hERG [3] = target: T2, hERG; assay: hERG single-concentration assay (QPatch automated patch clamp, CHO cells, 30 μM); conditions: CHO cells stably expressing hERG
From the text: as §1

human H4 receptor [4] = target: T1, human H4 receptor; assay: H4 Antagonist Functional cAMP Gi Assay; conditions: HEKf cells expressing human H4 receptor, functional antagonist pKb by Cheng-Prusoff vs histamine; for Kb: read-out: Human H4 cAMP fpKb (converted)
Description: HEKf cells were infected overnight using baculovirus expressing the human H4 receptor, then centrifuged at 1,200 rpm for 5 min, frozen in cell freezing medium (Sigma) and stored at −150° C. On the day of assay, the cells were thawed and resuspended in HBSS with 500 nM IBMX to achieve a density of 1,500 cells/well. H4 ligands were prepared in DMSO and stamped by LabCyte ECHO acoustic dispensing at 25 nL in low volume plates. 10 μL/well cells were plated in the presence of 1 μM forskolin, subjected to centrifugation at 1,200 rpm for 1 min and incubated for 30 min prior to addition of Cisbio cAMP detection reagents to a total volume 20 μL/well. […] Following detection reagent addition and shaking at room temperature for 60 min, cAMP accumulation was measured using HTRF on a PheraStar plate reader. EC50 values were generated using a 4-parameter logistical fit equation to quantify agonist potencies. Functional antagonist affinity values were generated using the Cheng-Prusoff equation to calculate a pKb value using the antagonist assay data.

T2 sequence (Q12809 whole entry): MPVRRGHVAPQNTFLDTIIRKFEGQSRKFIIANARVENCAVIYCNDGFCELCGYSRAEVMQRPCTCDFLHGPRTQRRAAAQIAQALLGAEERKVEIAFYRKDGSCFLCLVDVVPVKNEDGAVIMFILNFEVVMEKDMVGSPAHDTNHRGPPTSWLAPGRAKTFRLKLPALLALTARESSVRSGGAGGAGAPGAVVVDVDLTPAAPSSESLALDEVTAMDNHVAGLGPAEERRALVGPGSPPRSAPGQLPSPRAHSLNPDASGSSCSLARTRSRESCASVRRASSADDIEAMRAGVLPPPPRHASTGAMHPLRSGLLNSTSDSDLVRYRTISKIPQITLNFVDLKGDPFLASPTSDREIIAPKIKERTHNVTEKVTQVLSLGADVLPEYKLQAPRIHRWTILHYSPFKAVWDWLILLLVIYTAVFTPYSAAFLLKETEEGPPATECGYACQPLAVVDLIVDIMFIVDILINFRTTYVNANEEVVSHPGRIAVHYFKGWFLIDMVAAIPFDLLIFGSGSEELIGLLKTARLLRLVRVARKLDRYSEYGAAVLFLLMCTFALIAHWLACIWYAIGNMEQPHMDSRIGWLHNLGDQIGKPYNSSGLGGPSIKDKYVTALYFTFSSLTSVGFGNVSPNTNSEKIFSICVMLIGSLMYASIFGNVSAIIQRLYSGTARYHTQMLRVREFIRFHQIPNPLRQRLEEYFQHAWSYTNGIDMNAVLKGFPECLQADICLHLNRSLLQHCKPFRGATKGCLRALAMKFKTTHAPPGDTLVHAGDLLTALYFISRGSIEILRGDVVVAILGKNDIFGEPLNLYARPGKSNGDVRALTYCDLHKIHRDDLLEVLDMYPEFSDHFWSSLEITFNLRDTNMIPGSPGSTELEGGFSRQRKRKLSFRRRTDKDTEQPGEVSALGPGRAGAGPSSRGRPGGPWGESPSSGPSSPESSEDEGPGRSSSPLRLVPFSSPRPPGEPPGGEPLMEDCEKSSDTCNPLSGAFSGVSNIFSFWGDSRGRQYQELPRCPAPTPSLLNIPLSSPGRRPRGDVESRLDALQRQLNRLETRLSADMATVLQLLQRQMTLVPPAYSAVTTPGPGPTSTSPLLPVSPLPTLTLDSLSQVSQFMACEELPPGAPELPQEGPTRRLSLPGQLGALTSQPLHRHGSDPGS

SMILES | Kb (human H4 receptor [1]) [nM] | Kb (human H4 receptor [4]) [nM] | IC50 (hERG [2]) [nM] | inhibition at 30 µM (hERG [3]) [%] | further results
CNC1CN(c2nc(N)nc3c2OCC[C@@H](C(C)C)N3)C1 [Example 13-1, (S)-8-Isopropyl-4-(3-(methylamino)azetidin-1-yl)-6,7,8,9-tetrahydropyrimido[5,4-b][1,4]oxazepin-2-amine] | 1.58 | 1 | ≥ 100000 | 15 | 
CC(C)[C@@H]1CCOc2c(nc(N)nc2N2CC[C@@H](N)C2)N1 [Example 12-1, (S)-4-((R)-3-Aminopyrrolidin-1-yl)-8-isopropyl-6,7,8,9-tetrahydropyrimido[5,4-b][1,4]oxazepin-2-amine] | 2.51 | 0.631 | ≥ 100000 |  | 
CC(C)[C@@H]1COc2c(nc(N)nc2N2CC[C@@H](N)C2)N1 [Example 2-2, (R)-4-((R)-3-Aminopyrrolidin-1-yl)-7-isopropyl-7,8-dihydro-6H-pyrimido[5,4-b][1,4]oxazin-2-amine] |  | 0.631 | ≥ 100000 |  | 
CN[C@@H]1CCN(c2nc(N)nc3c2OC[C@@H](C(C)C)N3)C1 [Example 1-4, (R)-7-Isopropyl-4-((R)-3-(methylamino)pyrrolidin-1-yl)-7,8-dihydro-6H-pyrimido[5,4-b][1,4]oxazin-2-amine] |  | 0.794 | ≥ 100000 | 20 | 
CN[C@@H]1CCN(c2nc(N)nc3c2OCC[C@H](C)N3)C1 [Example 11-3, (S)-8-Methyl-4-((R)-3-(methylamino)pyrrolidin-1-yl)-6,7,8,9-tetrahydropyrimido[5,4-b][1,4]oxazepin-2-amine] | 10 | 31.6 |  |  | 
CN[C@@H]1CCN(c2nc(N)nc3c2OCC(C(C)C)CN3)C1 (stereo partly drawn) [Example 11-9, 7-Isopropyl-4-((R)-3-(methylamino)pyrrolidin-1-yl)-6,7,8,9-tetrahydropyrimido[5,4-b][1,4]oxazepin-2-amine] | 50.1 | 63.1 |  |  | 
CN[C@@H]1CCN(c2nc(N)nc3c2OCC[C@@H](C(C)C)N3)C1 [Example 11-5, (S)-8-Isopropyl-4-((R)-3-(methylamino)pyrrolidin-1-yl)-6,7,8,9-tetrahydropyrimido[5,4-b][1,4]oxazepin-2-amine] |  | 0.398 | ≥ 100000 | 21 | 
CN1CCN(C(=O)c2cc3cc(Cl)ccc3[nH]2)CC1 [JNJ-7777120, reference compound] |  |  | 3980 |  | 
CC(C)c1cc(N2CC[C@@H](N)C2)nc(N)n1 [JNJ-39758979, reference compound] |  |  |  |  | Human H4 DMR fpKb (human H4 receptor [1]): 8.5; Human H4 cAMP fpKb (human H4 receptor [4]): 8.1
CC[C@@H]1CCOc2c(nc(N)nc2N2CC[C@@H](NC)C2)N1 [Example 11-4, (R)-8-Ethyl-4-((R)-3-(methylamino)pyrrolidin-1-yl)-6,7,8,9-tetrahydropyrimido[5,4-b][1,4]oxazepin-2-amine] | 1.26 | 0.631 | ≥ 100000 | 39 | 
CN[C@@H]1CCN(c2nc(N)nc3c2OCC[C@@H](C)N3)C1 [Example 11-2, (R)-8-Methyl-4-((R)-3-(methylamino)pyrrolidin-1-yl)-6,7,8,9-tetrahydropyrimido[5,4-b][1,4]oxazepin-2-amine] | 5.01 | 2.51 |  | 13 | 
CNC1CN(c2nc(N)nc3c2OC[C@@H](C(C)C)N3)C1 [Example 3-2, (R)-7-Isopropyl-4-(3-(methylamino)azetidin-1-yl)-7,8-dihydro-6H-pyrimido[5,4-b][1,4]oxazin-2-amine] |  | 1.26 | ≥ 100000 | 26 | 

Continued, in another order:

Kb (human H4 receptor [1]) [nM] | Kb (human H4 receptor [4]) [nM] | SMILES | IC50 (hERG [2]) [nM] | inhibition at 30 µM (hERG [3]) [%] | further results
12.6 |  | CN[C@@H]1CCN(c2nc(N)nc3c2OCC2CCCC2N3)C1 (stereo partly drawn) [Example 17-1, 4-[(3R)-3-(methylamino)pyrrolidin-1-yl]-6a,7,8,9,9a, 10-hexahydro-6H-cyclopenta[e]pyrimido[5,4-b][1,4]oxazepin-2-amine] |  | 29 | 
2 |  | CN[C@@H]1CCN(c2nc(N)nc3c2OCC2(CCC2)N3)C1 [Example 17-4, 4′-[(3R)-3-(methylamino)pyrrolidin-1-yl]-6′H,8′H-spiro[cyclobutane-1,7′-pyrimido[5,4-b][1,4]oxazin]-2′-amine] |  |  | 
31.6 |  | CNC1CN(c2nc(N)nc3c2OCC2CCCC2N3)C1 (centres unmarked) [Example 17-3, 4-[3-(methylamino)azetidin-1-yl]-6a, 7,8,9,9a, 10-hexahydro-6H-cyclopenta[e]pyrimido[5,4-b][1,4]oxazepin-2-amine] |  | 42 | 
10 |  | CC[C@@H]1CCOc2c(nc(N)nc2N2CC[C@@H](N)C2)N1 [Example 17-7, 4-[(3R)-3-aminopyrrolidin-1-yl]-8-ethyl-6,7,8,9-tetrahydropyrimido[5,4-b][1,4]oxazepin-2-amine] |  |  | 
7.94 |  | CC[C@]1(C)COc2c(nc(N)nc2N2CC[C@@H](NC)C2)N1 [Example 17-14, 7-ethyl-7-methyl-4-[(3R)-3-(methylamino)pyrrolidin-1-yl]-7,8-dihydro-6H-pyrimido[5,4-b][1,4]oxazin-2-amine] |  |  | 
20 |  | Nc1nc2c(c(N3CC[C@@H](N)C3)n1)OCC1CCCC1N2 (stereo partly drawn) [Example 17-2, 4-[(3R)-3-aminopyrrolidin-1-yl]-6a, 7,8,9,9a, 10-hexahydro-6H-cyclopenta[e]pyrimido[5,4-b][1,4]oxazepin-2-amine] |  |  | 
200 |  | CN[C@@H]1CCN(c2nc(N)nc3c2OCC(C)(C)CN3)C1 [Example 17-5, 7,7-dimethyl-4-[(3R)-3-(methylamino)pyrrolidin-1-yl]-6,7,8,9-tetrahydropyrimido[5,4-b][1,4]oxazepin-2-amine] |  |  | 
7.94 |  | CN[C@@H]1CCN(c2ncnc3c2OCC2(CCCC2)N3)C1 [Example 17-12, (3R)—N-methyl-1-(6′H,8′H-spiro[cyclopentane-1,7′-pyrimido[5,4-b][1,4]oxazin]-4′-yl)pyrrolidin-3-amine] |  |  | 
39.8 |  | CCC1(C)CCOc2c(ncnc2N2CC[C@@H](NC)C2)N1 (stereo partly drawn) [Example 17-9, (3R)-1-(8-ethyl-8-methyl-6,7,8,9-tetrahydropyrimido[5,4-b][1,4]oxazepin-4-yl)-N-methylpyrrolidin-3-amine] |  |  | 
3.98 |  | CN[C@@H]1CCN(c2ncnc3c2OCC2(CC(F)(F)C2)N3)C1 [Example 17-13, (3R)-1-(3,3-difluoro-6′H,8′H-spiro[cyclobutane-1,7′-pyrimido[5,4-b][1,4]oxazin]-4′-yl)-N-methylpyrrolidin-3-amine] |  |  | 
0.794 | 3.16 | CN[C@@H]1CCN(c2ncnc3c2OCC[C@@H](C(C)C)N3)C1 [Example 14-1, (R)-1-((S)-8-Isopropyl-6,7,8,9-tetrahydropyrimido[5,4-b][1,4]oxazepin-4-yl)-N-methylpyrrolidin-3-amine] |  | 41 | 
